# Results: patent publication US8324405B2, “Chromene derivatives and use thereof as HIF hydroxylase activity inhibitors” (FibroGen, Inc., priority 2008, dated 2012)
# Target: T1, HIF-PH2 (Homo sapiens, UniProt Q9GZT9)
# T1 construct: made in house; host or cells: insect Hi5 cells
# Test: HIF-PH assay (14CO2 capture, peptide-dependent turnover)
# Format: biochemical
# Details: Concentration 7.41 μM
# Text: Ketoglutaric acid α-[1-^14C]-sodium salt, alpha-ketoglutaric acid sodium salt, and HPLC purified peptide may be obtained from commercial sources, e.g., Perkin-Elmer (Wellesley Mass.), Sigma-Aldrich, and SynPep Corp. (Dublin Calif.), respectively. Peptides for use in the assay may be fragments of HIFα as described above or as disclosed in International Publication WO 2005/118836, incorporated by reference herein. For example, a HIF peptide for use in the HIF-PH assay is [methoxycoumarin]-DLDLEALAPYIPADDDFQL-amide. HIF-PH, e.g., HIF-PH2 (EGLN1), can be expressed in, e.g., insect Hi5 cells, and partially purified, e.g., through a SP ion exchange chromatography column. Enzyme activity is determined by capturing ^14CO2 using an assay described by Kivirikko and Myllyla (1982, Methods Enzymol. 82:245-304). Assay reactions contain 50 mM HEPES (pH 7.4), 100 μM α-ketoglutaric acid sodium salt, 0.30 μCi/mL ketoglutaric acid α-[1-^14C]-sodium salt, 40 μM FeSO4, 1 mM ascorbate, 1541.8 units/mL Catalase, with or without 50 μM peptide substrate and various concentrations of compound of the invention. Reactions are initiated by addition of HIF-PH enzyme.
# The peptide-dependent percent turnover is calculated by subtracting percent turnover in the absence of peptide from percent turnover in the presence of substrate peptide. Percent inhibition and IC50 are calculated using peptide-dependent percent turnover at given inhibitor concentrations. Calculation of IC50 values for each inhibitor is conducted using GraFit software (Erithacus Software Ltd., Surrey UK).
# Representative compounds of the invention were analyzed using the HIF-PH assay described above. Table I presents enzyme inhibition data for exemplary compounds against HIF-PH2, a representative HIF prolyl hydroxylase. By inhibiting HIF prolyl hydroxylase, compounds of the invention stabilize HIFα, which then combines with HIFβ to form an active transcription factor that increases expression of various genes involved in numerous beneficial cellular processes.
# T1 sequence (Q9GZT9 whole entry, species assumed): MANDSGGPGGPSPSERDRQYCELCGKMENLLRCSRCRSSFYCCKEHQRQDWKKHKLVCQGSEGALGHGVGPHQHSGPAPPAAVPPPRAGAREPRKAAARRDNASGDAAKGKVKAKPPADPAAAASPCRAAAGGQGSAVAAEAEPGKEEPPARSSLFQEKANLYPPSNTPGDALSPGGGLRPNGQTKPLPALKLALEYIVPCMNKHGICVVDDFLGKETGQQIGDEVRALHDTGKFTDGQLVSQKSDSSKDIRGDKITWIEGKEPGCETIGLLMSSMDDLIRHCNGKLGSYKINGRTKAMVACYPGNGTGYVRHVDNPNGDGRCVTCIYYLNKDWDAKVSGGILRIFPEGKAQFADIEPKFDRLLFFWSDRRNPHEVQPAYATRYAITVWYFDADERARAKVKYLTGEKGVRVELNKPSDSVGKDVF
row,inhibition at 7.41 µM,Structure (SMILES)
1,94%,"COc1ccc(-c2ccc3oc(=O)c(C(=O)NCC(=O)O)c(O)c3c2)cc1 [Example 3, {[4-Hydroxy-6-(4-methoxy-phenyl)-2-oxo-2H-chromene-3-carbonyl]-amino}-acetic acid]"
2,100%,"O=C(O)CNC(=O)c1c(O)c2cc(-c3ccc(Oc4ccccc4)cc3)ccc2oc1=O [Example 4, {[4-Hydroxy-2-oxo-6-(4-phenoxy-phenyl)-2H-chromene-3-carbonyl]-amino}-acetic acid]"
3,96%,"O=C(O)CNC(=O)c1c(O)c2cc(-c3ccc(C(F)(F)F)cc3)ccc2oc1=O [Example 5, {[4-Hydroxy-2-oxo-6-(4-trifluoromethyl-phenyl)-2H-chromene-3-carbonyl]-amino}-acetic acid]"

# Same assay, conditions: Concentration 12.50 μM
row,Structure (SMILES),inhibition at 12.5 µM
1,"Cc1cc2oc(=O)c(C(=O)NCC(=O)O)c(O)c2cc1C [Example 15, [(4-Hydroxy-6,7-dimethyl-2-oxo-2H-chromene-3-carbonyl)-amino]-acetic acid]",98%
2,"O=C(O)CNC(=O)c1c(O)c2cc(F)ccc2oc1=O [Example 16, [(6-Fluoro-4-hydroxy-2-oxo-2H-chromene-3-carbonyl)-amino]-acetic acid]",96%
3,"O=C(O)CNC(=O)c1c(O)c2ccc(F)cc2oc1=O [Example 17, [(7-Fluoro-4-hydroxy-2-oxo-2H-chromene-3-carbonyl)-amino]-acetic acid]",98%
4,"O=C(O)CNC(=O)c1c(O)c2cc(F)cc(F)c2oc1=O [Example 18, [(6,8-Difluoro-4-hydroxy-2-oxo-2H-chromene-3-carbonyl)-amino]-acetic acid]",95%
5,"O=C(O)CNC(=O)c1c(O)c2cc3ccccc3cc2oc1=O [Example 32, [(4-Hydroxy-2-oxo-2H-benzo[g]chromene-3-carbonyl)-amino]-acetic acid]",98%
6,"O=C(O)CNC(=O)c1c(O)c2cc3cc(Br)ccc3c(Br)c2oc1=O [Example 34, [(7,10-Dibromo-4-hydroxy-2-oxo-2H-benzo[g]chromene-3-carbonyl)-amino]-acetic acid]",100%

# The remaining lines, values ahead:
row,inhibition at 12.5 µM,Structure (SMILES)
1,99%,"O=C(O)CNC(=O)c1c(O)c2cc(-c3cccs3)ccc2oc1=O [Example 27, [(4-Hydroxy-2-oxo-6-thiophen-2-yl-2H-chromene-3-carbonyl)-amino]-acetic acid]"
2,100%,"O=C(O)CNC(=O)c1c(O)c2cc(-c3ccco3)ccc2oc1=O [Example 28, [(6-Furan-2-yl-4-hydroxy-2-oxo-2H-chromene-3-carbonyl)-amino]-acetic acid]"
3,100%,"O=C(O)CNC(=O)c1c(O)c2ccc3ccccc3c2oc1=O [Example 31, [(4-Hydroxy-2-oxo-2H-benzo[h]chromene-3-carbonyl)-amino]-acetic acid]"
4,97%,"Cc1ccc2c(O)c(C(=O)NCC(=O)O)c(=O)oc2c1 [Example 35, [(4-Hydroxy-7-methyl-2-oxo-2H-chromene-3-carbonyl)-amino]-acetic acid]"

# Same assay, conditions: Concentration 22.22 μM
Structure (SMILES),inhibition at 22.22 µM,% Inhibition HIF-PH2
"O=C(O)CNC(=O)c1c(O)c2cc(Br)ccc2oc1=O [Example 2, [(6-Bromo-4-hydroxy-2-oxo-2H-chromene-3-carbonyl)-amino]-acetic acid]",97%,
"Cc1ccc2c(O)c(C(=O)NCC(=O)O)c(=O)oc2c1C [Example 10, [(4-Hydroxy-7,8-dimethyl-2-oxo-2H-chromene-3-carbonyl)-amino]-acetic acid]",100%,
"O=C(O)CNC(=O)c1c(O)c2ccc(-c3ccc(Oc4ccccc4)cc3)cc2oc1=O [Example 11, {[4-Hydroxy-2-oxo-7-(4-phenoxy-phenyl)-2H-chromene-3-carbonyl]-amino}-acetic acid]",100%,
"C[C@H](NC(=O)c1c(O)c2ccc(-c3ccc(Oc4ccccc4)cc3)cc2oc1=O)C(=O)O [Example 12, 2-S-{[4-Hydroxy-2-oxo-7-(4-phenoxy-phenyl)-2H-chromene-3-carbonyl]-amino}-propionic acid]",,100%
"O=C(O)CNC(=O)c1c(O)c2cc(Cl)cc(Cl)c2oc1=O [Example 13, [(6,8-Dichloro-4-hydroxy-2-oxo-2H-chromene-3-carbonyl)-amino]-acetic acid]",96%,

# Continued, values first:
inhibition at 22.22 µM,% Inhibition HIF-PH2,Structure (SMILES)
96%,,"O=C(O)CNC(=O)c1c(O)c2ccccc2oc1=O [Example 1, [(4-Hydroxy-2-oxo-2H-chromene-3-carbonyl)-amino]-acetic acid]"
100%,,"O=C(O)CNC(=O)c1c(O)c2cc(-c3ccc(OCc4ccccc4)cc3)ccc2oc1=O [Example 8, {[6-(4-Benzyloxy-phenyl)-4-hydroxy-2-oxo-2H-chromene-3-carbonyl]-amino}-acetic acid]"
100%,,"O=C(O)CNC(=O)c1c(O)c2ccc(Oc3ccccc3)cc2oc1=O [Example 9, [(4-Hydroxy-2-oxo-7-phenoxy-2H-chromene-3-carbonyl)-amino]-acetic acid]"

# Same assay, conditions: Concentration 50.00 μM
row,Structure (SMILES),inhibition at 50 µM
1,"Cc1cc(Cl)cc2c(O)c(C(=O)NCC(=O)O)c(=O)oc12 [Example 19, [(6-Chloro-4-hydroxy-8-methyl-2-oxo-2H-chromene-3-carbonyl)-amino]-acetic acid]",99%
2,"Cc1cccc2c(O)c(C(=O)NCC(=O)O)c(=O)oc12 [Example 20, [(4-Hydroxy-8-methyl-2-oxo-2H-chromene-3-carbonyl)-amino]-acetic acid]",99%
3,"Cn1nc(C(F)(F)F)cc1-c1cc(Cl)cc2c(O)c(C(=O)NCC(=O)O)c(=O)oc12 [Example 21, {[6-Chloro-4-hydroxy-8-(2-methyl-5-trifluoromethyl-2H-pyrazol-3-yl)-2-oxo-2H-chromene-3-carbonyl]-amino}-acetic acid]",99%
4,"O=C(O)CNC(=O)c1c(O)c2cc(Cl)cc(-c3cccnc3)c2oc1=O [Example 23, [(6-Chloro-4-hydroxy-2-oxo-8-pyridin-3-yl-2H-chromene-3-carbonyl)-amino]-acetic acid]",99%

# More lines, now with the values ahead:
row,inhibition at 50 µM,Structure (SMILES)
1,97%,"O=C(O)CNC(=O)c1c(O)c2cc(-c3cccnc3)ccc2oc1=O [Example 29, [(4-Hydroxy-2-oxo-6-pyridin-3-yl-2H-chromene-3-carbonyl)-amino]-acetic acid]"
2,99%,"O=C(O)CNC(=O)c1c(O)c2cc(-c3ccccn3)ccc2oc1=O [Example 30, [(4-Hydroxy-2-oxo-6-pyridin-2-yl-2H-chromene-3-carbonyl)-amino]-acetic acid]"
3,99%,"O=C(O)CNC(=O)c1c(O)c2c(OCc3ccccc3)cccc2oc1=O [Example 46, [(5-Benzyloxy-4-hydroxy-2-oxo-2H-chromene-3-carbonyl)-amino]-acetic acid]"
4,99%,"O=C(O)CNC(=O)c1c(O)c2c(OCc3ccc(F)cc3)cccc2oc1=O [Example 47, {[5-(4-Fluoro-benzyloxy)-4-hydroxy-2-oxo-2H-chromene-3-carbonyl]-amino}-acetic acid]"
5,99%,"Cc1ccc(COc2cccc3oc(=O)c(C(=O)NCC(=O)O)c(O)c23)cc1 [Example 48, {[4-Hydroxy-5-(4-methyl-benzyloxy)-2-oxo-2H-chromene-3-carbonyl]-amino}-acetic acid]"

# Same assay, conditions: Concentration 200.00 μM
row,Structure (SMILES),inhibition at 200 µM
1,"O=C(O)CNC(=O)c1c(O)c2cccc(Cl)c2oc1=O [Example 7, [(8-Chloro-4-hydroxy-2-oxo-2H-chromene-3-carbonyl)-amino]-acetic acid]",100%
2,"CCOC(=O)CNC(=O)c1c(O)c2cc(Cl)cc(Cl)c2oc1=O [Example 14, [(6,8-Dichloro-4-hydroxy-2-oxo-2H-chromene-3-carbonyl)-amino]-acetic acid ethyl ester]",43%

# The next lines start with the values.
row,inhibition at 200 µM,Structure (SMILES)
1,100%,"Cc1ccc2oc(=O)c(C(=O)NCC(=O)O)c(O)c2c1 [Example 6, [(4-Hydroxy-6-methyl-2-oxo-2H-chromene-3-carbonyl)-amino]-acetic acid]"
2,100%,"O=C(O)CNC(=O)c1c(O)c2c(ccc3ccccc32)oc1=O [Example 33, [(1-Hydroxy-3-oxo-3H-benzo[f]chromene-2-carbonyl)-amino]-acetic acid]"
